Results published in paper PMC11156899, “High-throughput screening unveils nitazoxanide as a potent PRRSV inhibitor by targeting NMRAL1” (Nature Communications, 2024).
Where “and” joins values, the source holds several entries; their conditions need not be identical. Identical values can stand only once. Like-named read-outs stand apart in the source and are kept apart here.

Experiments:
[1] = Cytotoxicity assay (CC50) in PAM cells; conditions: pig, porcine alveolar macrophages (PAM cells)
Description: (§1) A concentration-gradient screening strategy was employed for 141 compounds using indirect immunofluorescence assay (IFA). […] Data are mean ± SEM.
(§2) Cells were seeded in 96-well plates and grown in DMEM supplemented with 10% FBS. Upon reaching confluence, compounds were diluted to varying concentrations in 2% FBS-containing medium. Control wells contained DMEM with 0.5% DMSO. Treated cells were incubated at 37 °C in a 5% CO2 humidified environment for 48 or 72 h, followed by cytotoxicity assessment as outlined in our previous work[21]. […]

PRRSV (GSWW-18 strain) = assay: Anti-PRRSV dose-response (EC50, IFA) in PAM cells; format: cell-based, Porcine Reproductive and Respiratory Syndrome Virus; conditions: Porcine reproductive and respiratory syndrome virus
PRRSV GSWW-18 strain = assay: In vivo antiviral effect in swine infected with GSWW-18 strain; set-up: species or system pig
[2] = system: Porcine alveolar macrophages (PAM); assay: in vitro
Description: as §1, §2

NSP12 = assay: Surface plasmon resonance, NSP12 purified in vitro; format: binding, PRRSV GSWW-18 strain
Description: Supplementary Fig. 10: The Affinity of Nsp1α and Nsp12 with TIZ is Lower Than That of NMRAL1.
(a) The KD value of NMRAL1 obtained through the Affinity fit model.
(b) The KD value of Nsp1α determined using the Kinetics fit model.
(c) The KD value of Nsp1α obtained through the Affinity fit model.
'FT' is the flow-through after passing through the Ni column. 'Ni-200' and 'Ni-500' represent different purification conditions with varying concentrations. 'L2' is the total cell lysate after changing the expression conditions. 'S2' is the supernatant after cell lysis with changed expression conditions. The portions highlighted in red boxes indicate the target protein. […]
constant (KD) between Nsp1α and TIZ is lower than that of NMRAL1. We observe that […]
attempting different systems (Fig. R5 e-h). Although SPR confirms the interaction […]
possibly be attributed to the abnormal protein conformation of NSP12 purified by IBs.
The existing data also indicate that the early addition of NTZ produces a more pronounced antiviral effect (Extended Data Fig. 9), and the overexpression of NMRAL1 can almost negate the antiviral action of NTZ. This leads us to speculate that NMRAL1 may be one of the primary targets of NTZ's mechanism of action, while Nsp1α and NSP12 may serve as secondary targets.
Fig.R5 Validation of the binding between Nsp1α and Nsp12 with TIZ through SPR,

NMRAL1 = NMRAL1 (Chlorocebus sabaeus, UniProt A0A0D9R9W0); assay: Surface plasmon resonance, immobilized NMRAL1; format: binding; conditions: SPR
NMRAL1, sequence (A0A0D9R9W0 entry or part of it): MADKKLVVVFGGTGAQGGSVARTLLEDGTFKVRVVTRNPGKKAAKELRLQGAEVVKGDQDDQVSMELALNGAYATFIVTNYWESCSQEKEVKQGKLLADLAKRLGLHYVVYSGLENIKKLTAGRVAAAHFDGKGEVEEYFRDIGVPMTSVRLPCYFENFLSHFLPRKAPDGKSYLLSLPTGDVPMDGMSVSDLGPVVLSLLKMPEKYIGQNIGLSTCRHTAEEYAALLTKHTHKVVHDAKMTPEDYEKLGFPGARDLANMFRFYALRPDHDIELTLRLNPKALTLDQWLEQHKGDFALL
Description: For SPR, the Biacore T200 system (Cytiva) was used to assess binding affinity and kinetics. The Series S Sensor Chip CM5 (BR100530, Cytiva) immobilized 13,000 resonance units (RU) of NMRAL1 (50 μg/ml, pH 4.0, 10 μl/min, 25°C). TIZ (10 to 0.3125 μM) dissolved in a 5% DMSO running buffer (1.05 × HBS-EP+, Cytiva) was applied, with a solvent correction fluid gradient of 4.5–5.8% DMSO. Contact time was set to 120 s for binding and 300 s for dissociation. Post-experiment, data were analyzed using Biacore T200 Evaluation Software 3.0 with Affinity Fit 1:1 Binding model.

[3] = Pharmacokinetics and tissue distribution of TIZ in swine after oral NTZ; format: in vivo, pig
Description: Fig. 4 NTZ inhibition of PRRSV shedding and transmission. a Viral load in blood, and shedding in oronasal and anal swabs. Viral load or shedding in blood and oronasal swabs were quantified from 2 to 4 dpi, and in anal swabs from 2 to 5 dpi. Viral copy numbers for each pig during this period are presented. b NTZ suppression of PRRSV proliferation in blood. 48 h post infection (infected with 1 × 10^5.5 TCID50 of GSWW-18 strain), pigs were orally administered NTZ at 10 mg/kg or 5 mg/kg at 0 h and 12 h, followed by blood collection via anterior vena cava or ear marginal vein. […] Parameters were calculated using a non-compartmental analysis (NCA). Eighteen pigs were evenly divided into three dosage groups (n = 6), each housed separately, fasted for 12 h before the experiment, and monitored by professional veterinarians for welfare and enclosure cleaning to prevent coprophagia. g Tissue distribution of NTZ’s main metabolite TIZ. Tissues were collected as per Method Pharmacokinetics and Tissue Distribution of NTZ, quantifying TIZ content at various times (n = 2). […] Symbols represent three or six independent biological replicates (a, b, f) Scatter plots (a, f) show mean ± SD values of samples, with P-values as indicated, calculated via two-way ANOVA with Dunnett’s multiple-comparison test (a), P-values < 0.0332 were considered significant. […]

[4] = system: PRRSV GSWW-18 strain in Marc-145 cells; conditions: reason for exclusion before third round
Description: Subsequently, a second-round screening of the selected 141 compounds was conducted on Marc-145 cells using immunofluorescence assay (IFA) at four different dosage levels (Fig. 2a; Supplementary Fig. 2).
as §1
(1 picture or pasted object on this page, not shown here)

[5] = PAM cells, mean ± SEM, n = 2, unit only on axis title, read-out: EC50
[6] = third round of screening, PAM cells

CN(Cc1cnc2nc(N)nc(N)c2n1)c1ccc(C(=O)N[C@@H](CCC(=O)O)C(=O)O)cc1 [Methotrexate]
CC50 [1]: 6830 ± 2250 nM | EC50 (PRRSV (GSWW-18 strain); [5]): 307 ± 316 nM

NC(=O)c1ncn([C@@H]2O[C@H](CO)[C@@H](O)[C@H]2O)n1 [RBV, Ribavirin]
viral load and shedding, setting of efficacy (PRRSV GSWW-18 strain; blood, oronasal and anal swabs): effective only in the prophylactic setting | efficacy against PRRSV in swine (PRRSV GSWW-18 strain; positive control group): appeared to lack efficacy

CN1CCC(=C2c3ccccc3CCc3sccc32)CC1 [Pizotifen]
cytotoxicity (in words) [2]: low cytotoxicity | EC50 (PRRSV (GSWW-18 strain); [5]): 541 ± 140 nM

CCN(CC)CCCC(C)Nc1ccnc2cc(Cl)ccc12 (stereo not shown) [Chloroquine]
cytotoxicity (in words) [2, 6]: low cytotoxicity | EC50 (PRRSV (GSWW-18 strain); [5]): 1520 ± 475 nM

CS(=O)(=O)CCNCc1ccc(-c2ccc3ncnc(Nc4ccc(OCc5cccc(F)c5)c(Cl)c4)c3c2)o1 [Lapatinib]
CC50 [1]: 9510 ± 243 nM | EC50 (PRRSV (GSWW-18 strain); [5]): 1770 ± 535 nM

CCN(CCO)CCCC(C)Nc1ccnc2cc(Cl)ccc12 (stereo not shown) [Hydroxychloroquine]
cytotoxicity (in words) [2]: low cytotoxicity | EC50 (PRRSV (GSWW-18 strain); [5]): 1090 ± 187 nM

O=C(Nc1ncc([N+](=O)[O-])s1)c1ccccc1O [TIZ, Tizoxanide]
interaction with NSP12 (SPR) (NSP12): weak interaction | affinity compared between proteins (NMRAL1; NMRAL1 vs NSP1α and NSP12): higher than that of NSP1α and NSP12 | Kd (NMRAL1; legend of Fig. 6o, Supplementary Fig. 10a (Affinity fit model)): 4500 nM | Kd (NMRAL1; value printed in Fig. 6o with ka and kd): ~2870 nM and 2870 nM | kon (NMRAL1; read-out: ka): 2380 M⁻¹ s⁻¹ | koff (NMRAL1; read-out: kd): 0.00683 s⁻¹ | tissue distribution ([3]; pig tissues after oral NTZ, n = 2): primarily distributed in small and large intestines, MesLNs, ILNs, but not in high concentrations in lungs | Tmax ([3]; pig, in vivo, po, 25 mg/kg): 2.167 h

CCC(CC)COC(=O)[C@H](C)N[P@](=O)(OC[C@H]1O[C@@](C#N)(c2ccc3c(N)ncnn23)[C@H](O)[C@@H]1O)Oc1ccccc1 [Remdesivir]
cytotoxicity (in words) [2]: low cytotoxicity | EC50 (PRRSV (GSWW-18 strain); [5]): 4990 ± 2370 nM

COc1c(C)c2c(c(O)c1C/C=C(\C)CCC(=O)O)C(=O)OC2 [Mycophenolic acid]
EC50 (PRRSV (GSWW-18 strain); [5]): 305 ± 67 nM

C[C@H]1O[C@@H](O[C@H]2CC[C@@]3(C)[C@H](CC[C@@H]4[C@@H]3C[C@@H](O)[C@]3(C)[C@@H](C5=CC(=O)OC5)CC[C@]43O)C2)C[C@H](O)[C@@H]1O[C@H]1C[C@H](O)[C@H](O[C@H]2C[C@H](O)[C@H](O[C@@H]3O[C@H](CO)[C@@H](O)[C@H](O)[C@H]3O)[C@@H](C)O2)[C@@H](C)O1 [Deslanoside]
cytotoxicity (in words) [4]: high cytotoxicity

Nc1ccn([C@@H]2O[C@H](CO)[C@@H](O)C2(F)F)c(=O)n1 [Gemcitabine]
EC50 (PRRSV (GSWW-18 strain); [5]): 109 ± 29 nM

CN(C/C=C/C#CC(C)(C)C)Cc1cccc2ccccc12 [Terbinafine]
cytotoxicity (in words) [2]: low cytotoxicity | EC50 (PRRSV (GSWW-18 strain); [5]): 1220 ± 328 nM

CC(=O)c1ccc2c(c1)N(CCCN1CCN(CCO)CC1)c1ccccc1S2 [Acetophenazine]
cytotoxicity (in words) [2, 6]: low cytotoxicity | EC50 (PRRSV (GSWW-18 strain)): 718 ± 224 nM

CN(C)CCCOc1nn(Cc2ccccc2)c2ccccc12 [Benzydamine]
cytotoxicity (in words) [2]: low cytotoxicity | EC50 (PRRSV (GSWW-18 strain); [5]): 2010 ± 469 nM
